We go through one molecule from patent US20130072505A1, “6,9-Disubstituted Purine Derivatives and Their Use for Treating Skin” (priority 2006, published 2013).

The GI50 is the concentration giving 50% growth inhibition.

One data set concerns human subjects. The experiment in a line: Human Repeated Insult Patch Test. Type of data set: in vivo. The settings on record: test gel about 0.1 percent. As for the experimental part: Test gel (about 0.2 ml) containing about 0.1 percent 6-furfurylamino-9-(2-tetrahydropyranyl)purine was placed onto a 2 cm square occlusion patch was placed on each subjects back and remained for 24 hours. This procedure was repeated every Monday, Wednesday, and Friday until nine (9) applications had been made on the same area (induction phase). The area was examined before each new application. About 10-14 days after the ninth patch had been removed, a challenge patch (challenge phase) on a new area of the back and then examined 24 and 72 hours thereafter for reactivity. Skin responses were based on a six-point scale (0=no evidence of effect; +=barely perceptible; 1=mild; 2=moderate; 3=marked; and 4=severe).
Fifty-two (52) subjects completed the induction and challenge phases (total of 10 applications per subject).

Data set [1] relates to human myeloid leukemia K-562. Nature of the data set: in vitro cytotoxic activity, Calcein AM microtiter assay. Format: cell-based. The settings on record: K562, 72 hours, highest concentration 166.7 μM. The protocol: (§1) In vitro cytotoxic activity of several of the 6,9-disubstituted purine derivatives of this invention was determined using a microtiter assay with Calcein AM and a panel of cell lines of different histogenetic and species origin; kinetin was also examined as a control. Because only metabolically active cells cleave Calcein AM (tetraacetoxymethyl ester of calcein), the intracellular concentration of calcein corresponds to the number of vital cells in the culture.
(§2) The following cell lines were used: human osteosarcoma (HOS); breast carcinoma MCF-7; human myeloid leukemia K-562; and mouse fibroblasts NIH3T3. The cells were maintained in Nunc/Corning 80 cm^2 plastic tissue culture flasks and cultured in cell culture medium (DMEM with 5 g/l glucose, 2 mM glutamine, 100 U/ml penicillin, 100 μg/ml streptomycin, 10% fetal calf serum, and sodium bicarbonate).
(§3) The cell suspensions were prepared and diluted according to the particular cell type and the expected target cell density (2.500-30.000 cells per well based on cell growth characteristics) were added by pipette (80 μl) into 96/well microtiter plates. Inoculates were allowed a pre-incubation period of 24 hours at 37° C. and 5% CO2 for stabilization. Four-fold dilutions of the intended test concentration were added at time zero in 20 μl aliquots to the microtiter plate wells. The test compounds were generally evaluated at six 4-fold dilutions. The highest well concentration used in the present study was 166.7 μM. All samples were examined in triplicates. Incubations of cells with the tested compounds was for 72 hours at 37° C., in 5% CO2 atmosphere and 100% humidity. At the end of the incubation period, Calcein AM was added to a final concentration of 1 μg/ml incubated for 1 hour. Fluorescence intensity (FI) was measured with a Labsystem FIA Reader Fluoroscan Ascent (UK). The cell survival (GI50) was calculated using the following equation: GI50=([…])/(mean FIcontrol well−mean FIblank)×100%. The GI50 value, the drug concentration lethal to 50% of the cells, was calculated from the obtained dose response curves.

For a further data set, the system named is human osteosarcoma (HOS). The data set is described as above. Type of data set: cell-based. The conditions noted are these: 72 hours, highest concentration 166.7 μM. As for the experimental part:
as §1, §2, §3

The subject of the next data set is mouse fibroblasts NIH3T3. Described as above. Type of data set: cell-based. The settings on record: NIH3T3, 72 hours, highest concentration 166.7 μM, read-out: GI50 NIH-3T3. The protocol:
as §1, §2, §3

The subject of the next data set is breast carcinoma MCF-7. The data set is described as above. Type of data set: cell-based. The settings on record: Homo sapiens, MCF7; 72 hours; highest concentration 166.7 μM. As for the experimental part:
as §1, §2, §3

Data set [2] has as its system chorioallantoic membrane of White Leghorn eggs. Nature of the data set: Chorioallantoic Membrane Vascular Assay (ocular irritation). As for the experimental part: The chorioallantoic membrane of White Leghorn eggs, incubated for 14 days, were dosed with 40 μl of the test compound (and three lower concentrations in distilled water) and then further incubated for about 30 minutes at which time the chorioallantoic membrane was examined for vascular hemorrhage, capillary injection, and/or the presence of ghost vessels.

Data set [3] concerns normal, human-derived epidermal keratinocytes (NHEK). Nature of the data set: Epiderm MTT Viablity Assay. Format: cell-based. The protocol: Using MatTek Corporation's EpiDerm™ System (consisting of normal, human-derived epidermal keratinocytes (NHEK) which have been cultured to form a multilayered, highly differentiated model of the human epidermis), it was determined that 6-furfurylamino-9-(2-tetrahydropyranyl)purine would be expected to be classified as non-irritating.

The subject of data set [4] is Rat C6 glioma (ATCC No. CCL107). Nature of the data set: anti-inflammatory activity: isoproterenol-induced intracellular cAMP synthesis. Format: cell-based. The conditions noted are these: cAMP after 30 min with (−)-isoproterenol. The protocol:
Anti-inflammatory activity of several of the 6,9-disubstituted purine derivatives of this invention was determined; kinetin was also evaluated as a control. Rat C6 glioma (ATCC No. CCL107) was cultivated in monolayer in serum-free chemically defined medium containing Ham's F10/minimal essential medium (1:1 v/v), 2 mM L-glutamine, 1% (v/v) minimal essential medium vitamins (100×), 1% (v/v) minimal essential medium nonessential amino acids (100×), 100 U/ml penicillin, […], and 30 nM sodium selenite. Incubation was performed at 37° C. in a humidified atmosphere. The assays were performed in the logaritmic growth phase at a density of 2.5×10^5 cells/cm^2. Intracellular cAMP synthesis was induced by addition of 5 mM (−)-isoproterenol; various amounts of test compounds were added at the same time as the (−)-isoproterenol. After 30 min incubation at 37° C., the medium was removed and the cellular amount of cAMP was determined using the cAMP-enzyme immunoassay kit from Amersham. The I50 value was determined from a dose-response curve in duplicate.

Data set [5] deals with senescent human skin fibroblasts. The experiment in a line: treatment of senescent human skin fibroblasts (cell number, actin staining, morphology). Format: cell-based. As for the experimental part:
The effect of 6-furfurylamino-9-(2-tetrahydropyranyl)purine on senescent cells was also examined. An equal number of senescent cells were seeded in separate flasks and then treated with different concentrations of 6-furfurylamino-9-(2-tetrahydropyranyl)purine (0 to 400 μM). Cell numbers were determined after 7 and 14 days of treatment using a Coulter counter after trypsinisation and resuspension of the cells.
Late passage senescent cells with a life span of more than 95% were also treated with different concentrations of 6-furfurylamino-9-(2-tetrahydropyranyl)purine (0 to 200 μM) to assess age-related changes. The actin staining patterns were examined after three days. […] Less polymerized and diffused patterns of actin staining are generally associated with youthful characteristics of human fibroblasts. Thus, 6-furfurylamino-9-(2-tetrahydropyranyl)purine appears to revert some of the age-related changes in actin organization in senescent cells.
Senescent human skin fibroblasts were also treated with 6-furfurylamino-9-(2-tetrahydropyranyl)purine (0 to 400 μM) and evaluated for reversion of age-related changes. There were significant differences in the appearance of the cells after 7 and 30 days of treatment. […] Even at higher concentrations (200 and 400 μM), the 6-furfurylamino-9-(2-tetrahydropyranyl)purine-treated cells appeared to be smaller and have less intracellular debris as compared untreated cells.

Take `c1coc(CNc2ncnc3c2ncn3C2CCCCO2)c1` (stereo not shown) [6-furfurylamino-9-(2-tetrahydropyranyl)purine]: the “skin responses, six-point scale (0=no evidence of effect; +=barely perceptible; 1=mild; 2=moderate; 3=marked; 4=severe)” value in the data set with human subjects (challenge phase, at 24 hours, 52 subjects) is “only one subject had a barely perceptible rating (+)”. In the data set with human subjects (induction and challenge phases), the “induced allergic contact dermatitis or other irritation” value was “No evidence of induced allergic contact dermatitis or other irritation”. For the same molecule, the 50% growth inhibitory concentration (GI50) (in data set [1]; in the data set on human osteosarcoma (HOS); with mouse fibroblasts NIH3T3; with breast carcinoma MCF-7) was > 167 µM in each case. The ocular irritation classification entry in data set [2] is recorded as “non-irritant”. For the same molecule, the “RC50 (calculated concentration producing a positive reaction in 50% of treated eggs)” value in data set [2] (about 30 minutes, <1% irritant, >3% non-irritant) is given as 105%. Besides, the “irritation classification, EpiDerm System” value in [3] is “non-irritating”. In addition, the IC50 in data set [4] (Rattus norvegicus, C6 glioma, 0.5 h, read-out: Anti-inflammatory Activity I50) was found to be 13 µM. In addition, the “Anti-inflammatory Activity Effect” value in [4] is given as “Inhibition”. For the same molecule, the “cell number of senescent cells” value was “No negative effects” in data set [5] (0 to 400 μM, after 7 days) and “no negative effects” in [5] (lower concentrations (below 200 μM), after 14 days). The “appearance of the cells (reversion of age-related changes)” value in [5] (0 to 400 μM, after 30 days of treatment) is “younger looking in terms of becoming thinner and arranged in arrays”. For the same molecule, the “survival of senescent cells” value in data set [5] (200 μM or more, after 14 days) is reported as “slight negative effect on the survival of senescent cells”. Moreover, in data set [5] (late passage senescent cells, 0 to 200 μM, after three days), the actin staining pattern result was “changed the actin staining pattern from a highly polymerized pattern to a less polymerized filament pattern”.
